Results on three compounds are retold here after patent US20070219223A1, “Compositions and methods for treating respiratory disorders” (Endacea, Inc., priority 2006, published 2007).

Data set [1] deals with allergic rabbits. The data set can be described thus: Adenosine provocation test after aerosol L-97-1 in allergic rabbits (PC50 of adenosine, lung compliance). Format: in vivo, rabbit. The conditions noted are these: controls without L-97-1, aerosolized adenosine, n=9.
In data set [2] the test system is allergic rabbits. The conditions noted are these: baseline BHR, aerosolized histamine, n=5.
Procedure: All animals were anesthetized and intubated. All treatments were administered via an endotracheal tube with an ultrasonic nebulizer that produces aerosol droplets (80% are less than 5 μm). Dynamic compliance (Cdyn) was calculated from tidal volume and the difference in transpulmonary pressure (PTP) at zero flow (V). Total lung resistance (RT) was calculated as the ratio of PTP and V at […] lung volumes; these measurements are made automatically with the Buxco Respiratory Analyzer.
The conditions of data set [3]: cited from earlier work.

Where a name gives a salt, the structure may show the parent alone.

On to `Nc1ncnc2c1ncn2[C@@H]1O[C@H](CO)[C@@H](O)[C@H]1O` [adenosine], for which the “PC50 for adenosine (concentration of adenosine to reduce lung compliance by 50%)” value in data set [1] came to 3.24 ± 1.79 mg/mL.
Regarding `NCCc1c[nH]cn1` [histamine], in data set [2], the “PC50 for histamine (concentration of histamine to reduce lung compliance by 50%)” value was found to be 0.77 ± 0.28 mg/mL.
As to `OCc1cc(C(O)CNCCCCCCOCCCCc2ccccc2)ccc1O` (stereo not drawn) [salmeterol xinafoate, salmeterol 1-hydroxy-2-napthoic acid salt], the Solubility in water result in data set [3] is listed as “sparingly soluble in water”.
